Data from patent US20230374073A1, “DIMERIC MILLA IMMUNOMODULATORS” (Bristol-Myers Squibb Company, priority 2020, published 2023).
Starred links: 1 amine or outer side, 2 acyl side, 3 side chain; linkers in the order of their positions; H or OH if unused. Positions of bridges follow the written chain, without caps; N, C: chain ends. Non-standard residues stand in square brackets, D forms with d. Residues, ends and D or L forms follow the SMILES beside them. Chains are numbered I, II in the order given. Trp(1-CH2COOH) = N[C@@H](Cc1cn(CC(=O)O)c2ccccc12)C(=O)O; X1 = O=C(NC1CCC(CC2CCC(NC(=O)[*:2])CC2)CC1)[*:1]; Hyp = O=C(O)[C@@H]1C[C@@H](O)CN1; NMeNle = CCCC[C@H](NC)C(=O)O; NMeA = CN[C@@H](C)C(=O)O; Dab = NCC[C@H](N)C(=O)O; Dap = NC[C@H](N)C(=O)O

Target: T1, PD-1/PD-L1 (Homo sapiens, UniProt Q9NZQ7)
T1 construct: TVMV protease site (C); made in house; host or cells: HEK293T cells
Assay: PD-1/PD-L1 Homogenous Time-Resolved Fluorescence (HTRF) binding assay
Description: The ability of the compounds of formula (I) to bind to PD-L1 was investigated using a PD-1/PD-L1 Homogenous Time-Resolved Fluorescence (HTRF) binding assay.
Homogenous Time-Resolved Fluorescence (HTRF) Binding Assay
The interaction of PD-1 and PD-L1 can be assessed using soluble, purified preparations of the extracellular domains of the two proteins. The PD-1 and PD-L1 protein extracellular domains were expressed as fusion proteins with detection tags, for PD-1, the tag was the Fc portion of Immunoglobulin (PD-1-Ig) and for PD-L1 it was the 6 histidine motif (PD-L1-His). All binding studies were performed in an HTRF assay buffer consisting of dPBS supplemented with 0.1% […] bovine serum albumin and 0.05% (v/v) Tween-20. For the h/PD-L1-His binding assay, inhibitors were pre-incubated with PD-L1-His (10 nM final) for 15 m in 4 μl of assay buffer, followed by addition of PD-1-Ig (20 nM final) in 1 μl of assay buffer and further incubation for 15 m. HTRF detection was achieved using europium crypate-labeled anti-Ig (1 nM final) and allophycocyanin (APC) labeled anti-His (20 nM final). Antibodies were diluted in HTRF detection buffer and 5 μl was dispensed on top of the binding reaction. […]
Table 1 lists the IC50 values for representative examples of this disclosure measured in the PD-1/PD-L1 Homogenous Time-Resolved Fluorescence (HTRF) binding assay.

T1 sequence (Q9NZQ7 18-239): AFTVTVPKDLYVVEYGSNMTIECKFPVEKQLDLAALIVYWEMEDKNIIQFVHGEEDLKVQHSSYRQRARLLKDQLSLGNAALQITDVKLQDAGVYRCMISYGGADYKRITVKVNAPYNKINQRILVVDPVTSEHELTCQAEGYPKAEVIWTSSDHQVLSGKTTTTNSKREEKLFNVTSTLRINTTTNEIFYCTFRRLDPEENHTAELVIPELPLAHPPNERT

**Q.** Which IC50 does the source give for `CCCC[C@H]1C(=O)N(C)[C@@H](CCCC)C(=O)N[C@@H](CC(C)C)C(=O)N[C@H](C(=O)NCC(N)=O)CSCC(=O)N[C@@H](Cc2ccc(O)cc2)C(=O)N(C)[C@@H](C)C(=O)N[C@@H](CC(N)=O)C(=O)N2CCC[C@H]2C(=O)N[C@@H](CNC(=O)NC2CCC(CC3CCC(NC(=O)NC[C@@H]4NC(=O)[C@@H]5CCCN5C(=O)[C@H](CC(N)=O)NC(=O)[C@H](C)N(C)C(=O)[C@H](Cc5ccc(O)cc5)NC(=O)CSC[C@@H](C(=O)NCC(N)=O)NC(=O)[C@H](CC(C)C)NC(=O)[C@H](CCCC)N(C)C(=O)[C@H](CCCC)N(C)C(=O)[C@H](Cc5cn(CC(=O)O)c6ccccc56)NC(=O)[C@H](CCN)NC(=O)[C@H](Cc5c[nH]c6ccccc56)NC(=O)[C@@H]5C[C@@H](O)CN5C(=O)[C@H](CC(C)C)NC4=O)CC3)CC2)C(=O)N[C@@H](CC(C)C)C(=O)N2C[C@H](O)C[C@H]2C(=O)N[C@@H](Cc2c[nH]c3ccccc23)C(=O)N[C@@H](CCN)C(=O)N[C@@H](Cc2cn(CC(=O)O)c3ccccc23)C(=O)N1C` (stereo partly shown) [Compound 1002] (I: {CH2CO}-Y[NMeA]NP[Dap]L[Hyp]W[Dab][Trp(1-CH2COOH)][NMeNle][NMeNle]LCG-NH2 / II: {CH2CO}-Y[NMeA]NP[Dap]L[Hyp]W[Dab][Trp(1-CH2COOH)][NMeNle][NMeNle]LCG-NH2; linker I:5-II:5 via X1; thioether I:N-I:14, II:N-II:14) here?
**A.** 0.01 µM
